PMC7373191, “Escherichia coli K-12 Lacks a High-Affinity Assimilatory Cysteine Importer” (mBio, 2020)

Columns and labels:
Format in all cases: cell-based, Escherichia coli
[1] = target: T1, (UniProt P04816+P0AD96); experiment: inhibition of […]leucine uptake into whole cells, filtration; details: read-out: 50% inhibition
T1 construct: gene livJ; native chromosomal ABC importer in whole cells; other candidate importers deleted

[2] = target: T1, (UniProt P04816+P0AD96); experiment: inhibition of […]cysteine uptake into whole cells, filtration; details: read-out: 50% inhibition
[3] = substrate: N[C@@H](CS)C(=O)O; experiment: cells, lysate or membranes; details: strain ZYD214, no other amino acids, 93-s time point, 37 °C, minimal glucose medium pH 7.0, DTPA and chloramphenicol, labelled compound

T1 sequence (P22731 whole entry, one chain of several): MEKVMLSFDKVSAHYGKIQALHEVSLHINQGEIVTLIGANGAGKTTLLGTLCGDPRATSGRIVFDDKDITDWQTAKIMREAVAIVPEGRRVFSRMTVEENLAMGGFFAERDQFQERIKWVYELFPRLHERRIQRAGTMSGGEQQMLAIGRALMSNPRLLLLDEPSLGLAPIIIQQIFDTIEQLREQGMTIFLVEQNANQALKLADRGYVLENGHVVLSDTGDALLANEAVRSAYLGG
T1 sequence (P0AEX7 whole entry, one chain of several, further chain): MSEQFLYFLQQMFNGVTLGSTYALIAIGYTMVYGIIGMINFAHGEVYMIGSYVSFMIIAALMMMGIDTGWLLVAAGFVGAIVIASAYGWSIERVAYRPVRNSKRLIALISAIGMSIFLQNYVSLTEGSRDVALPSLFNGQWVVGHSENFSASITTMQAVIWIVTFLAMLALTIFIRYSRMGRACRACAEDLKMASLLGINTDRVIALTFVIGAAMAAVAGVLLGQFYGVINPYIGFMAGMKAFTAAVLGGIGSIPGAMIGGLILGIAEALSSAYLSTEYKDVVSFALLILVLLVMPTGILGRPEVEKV
T1 sequence (P22729 whole entry, one chain of several, further chain): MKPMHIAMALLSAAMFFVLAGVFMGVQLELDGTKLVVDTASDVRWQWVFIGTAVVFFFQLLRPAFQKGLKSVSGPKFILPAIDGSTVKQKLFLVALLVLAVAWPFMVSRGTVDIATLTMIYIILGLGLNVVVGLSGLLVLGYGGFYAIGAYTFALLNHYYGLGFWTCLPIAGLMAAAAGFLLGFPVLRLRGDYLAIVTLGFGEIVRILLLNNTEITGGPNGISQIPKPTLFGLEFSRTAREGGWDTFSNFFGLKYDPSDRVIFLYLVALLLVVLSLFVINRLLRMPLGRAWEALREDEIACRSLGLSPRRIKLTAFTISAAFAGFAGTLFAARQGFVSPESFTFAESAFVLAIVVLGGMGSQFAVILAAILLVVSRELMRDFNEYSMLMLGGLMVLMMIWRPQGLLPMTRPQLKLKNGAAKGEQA
T1 sequence (P0A9S7 whole entry, one chain of several, further chain): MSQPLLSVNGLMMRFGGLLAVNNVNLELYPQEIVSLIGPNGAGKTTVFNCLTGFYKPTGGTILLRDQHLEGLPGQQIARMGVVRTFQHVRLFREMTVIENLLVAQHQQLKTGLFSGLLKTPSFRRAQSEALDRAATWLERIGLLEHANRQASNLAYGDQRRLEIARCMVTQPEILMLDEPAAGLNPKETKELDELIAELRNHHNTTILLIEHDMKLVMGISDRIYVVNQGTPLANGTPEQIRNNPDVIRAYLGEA

Q: For N[C@@H](CS)C(=O)O [cysteine], which IC50 [1] is on record?
A: ~400 µM

Q: With CC(C)C[C@H](N)C(=O)O [leucine] as the molecule, how does the IC50 [2] read?
A: ~2000 nM

B1: LIV system (LivJ/LivKHMGF) (Escherichia coli K-12) (protein)
chain 1: EDIKVAVVGAMSGPVAQYGDQEFTGAEQAVADINAKGGIKGNKLQIVKYDDACDPKQAVAVANKVVNDGIKYVIGHLCSSSTQPASDIYEDEGILMITPAATAPELTARGYQLILRTTGLDSDQGPTAAKYILEKVKPQRIAIVHDKQQYGEGLARAVQDGLKKGNANVVFFDGITAGEKDFSTLVARLKKENIDFVYYGGYHPEMGQILRQARAAGLKTQFMGPEGVANVSLSNIAGESAEGLLVTKPKNYDQVPANKPIVDAIKAKKQDPSGAFVWTTYAALQSLQAGLNQSDDPAEIAKYLKANSVDTVMGPLTWDEKGDLKGFEFGVFDWHANGTATDAK
chain 2: DDIKVAVVGAMSGPIAQWGDMEFNGARQAIKDINAKGGIKGDKLVGVEYDDACDPKQAVAVANKIVNDGIKYVIGHLCSSSTQPASDIYEDEGILMISPGATNPELTQRGYQHIMRTAGLDSSQGPTAAKYILETVKPQRIAIIHDKQQYGEGLARSVQDGLKAANANVVFFDGITAGEKDFSALIARLKKENIDFVYYGGYYPEMGQMLRQARSVGLKTQFMGPEGVGNASLSNIAGDAAEGMLVTMPKRYDQDPANQGIVDALKADKKDPSGPYVWITYAAVQSLATALERTGSDEPLALVKDLKANGANTVIGPLNWDEKGDLKGFDFGVFQWHADGSSTAAK
notes: native chromosomal ABC importer in whole cells; other candidate importers deleted
Q: B1 was tested. Which Km [3] did it give?
A: 20 µM
